From ChEMBL document CHEMBL2169825, “Development of selective, potent RabGGTase inhibitors” (J Med Chem, 2012)

Experiments:
[1] = Inhibition of GGTase 1 using NBD-FPP as substrate after 10 mins by solution based fluorometric assay
[2] = Inhibition of RabGGTase using [3H]GGPP as substrate after 1 hr by scintillation proximity assay
[3] = Inhibition of FTase using NBD-GPP as substrate after 10 mins by solution based fluorometric assay
[4] = test system: HCT-116; test: Cytotoxicity against human HCT116 cells after 24 hrs by Alamar Blue assay; assay type: functional, cell-based; conditions: HCT-116, 24 h
[5] = Inhibition of RabGGTase in human HeLa cells after 6 hrs by reprenylation assay; assay type: cell-based
[6] = test system: PBMC; test: Cytotoxicity against human PBMC cells after 24 hrs by Alamar Blue assay; assay type: cell-based
[7] = test system: DU-145; test: Cytotoxicity against human DU145 cells after 24 hrs by Alamar Blue assay; assay type: functional, cell-based; conditions: DU-145, 24 h
[8] = test system: HeLa; test: Cytotoxicity against human HeLa cells after 24 hrs by Alamar Blue assay; assay type: functional, cell-based
[9] = Inhibition of RabGGTase using NBD-FPP as substrate after 5 mins by fluorometric assay
[10] = test system: A2780; test: Cytotoxicity against human A2780 cells after 24 hrs by Alamar Blue assay; assay type: functional, cell-based; conditions: A2780, 24 h
[11] = test system: A549; test: Cytotoxicity against human A549 cells after 24 hrs by Alamar Blue assay; assay type: functional, cell-based; conditions: A549, 24 h
[12] = Inhibition of rat RabGGTase using [3H]GGPP as substrate after 30 mins by scintillation counter

SMILES | IC50 [1] | IC50 [2] | IC50 [3] | IC50 [4] | IC50 [5] | IC50 [6] | IC50 [7] | IC50 [8] | IC50 [9] | IC50 [10] | IC50 [11] | IC50 [12]
COc1ccc(S(=O)(=O)N2Cc3cc(-c4ccc(C#N)o4)ccc3N(Cc3cncn3C)C[C@H]2Cc2ccc(-c3cccnc3)cc2)cc1 | > 99500 nM | 37 nM | 110 nM |  |  |  |  |  |  |  |  | 
COc1ccc(S(=O)(=O)N2Cc3cc(-c4ccc(C=O)o4)ccc3N(Cc3cncn3C)C[C@H]2Cc2ccc(-c3ccc(Cl)cc3)cc2)cc1 | > 99500 nM | 2240 nM | > 9700 nM |  |  |  |  |  |  |  |  | 
COc1ccc(S(=O)(=O)N2Cc3cc(N4CCN(C(C)=O)CC4)ccc3N(Cc3cncn3C)C[C@H]2Cc2ccc(O)cc2)cc1 | > 99500 nM | 27 nM | 112 nM |  |  |  |  |  |  |  |  | 
COc1ccc(S(=O)(=O)N2Cc3cc(-c4ccco4)ccc3N(Cc3cncn3C)C[C@H]2Cc2ccc(O)cc2)cc1 | > 99500 nM | 55 nM | 81.7 nM |  |  |  |  |  |  |  |  | 
COc1ccc(S(=O)(=O)N2Cc3cc(-c4ccc(C#N)o4)ccc3N(Cc3cncn3C)C[C@H]2Cc2ccc(Nc3ccccc3)cc2)cc1 | > 99500 nM | 1060 nM | 1210 nM |  |  |  |  |  |  |  |  | 
COc1ccc(S(=O)(=O)N2Cc3cc(C#N)ccc3N(Cc3cncn3C)C[C@H]2Cc2ccc(OC(=O)NCc3ccccc3)cc2)cc1 | > 99500 nM |  |  | 231 nM | 81 nM | > 10000 nM | 142 nM | 151 nM | 72.2 nM | 130 nM | 338 nM | 
COc1ccc(S(=O)(=O)N2Cc3cc(-c4ccc(Cl)cc4)ccc3N(Cc3cncn3C)C[C@H]2Cc2ccc(O)cc2)cc1 | > 99500 nM | 706 nM | 194 nM |  |  |  |  |  |  |  |  | 
COc1ccc(S(=O)(=O)N2Cc3cc(-c4ccc(C=O)o4)ccc3N(Cc3cncn3C)C[C@H]2Cc2ccc(OS(=O)(=O)C(F)(F)F)cc2)cc1 | > 99500 nM | 4290 nM | > 9700 nM |  |  |  |  |  |  |  |  | 
COc1ccc(S(=O)(=O)N2Cc3cc(C#N)ccc3N(Cc3cncn3C)C[C@H]2Cc2ccc(-c3cccnc3)cc2)cc1 | 3630 nM | 11 nM | 4.3 nM | 308 nM | 466 nM | > 10000 nM | 413 nM | 409 nM | 353 nM | 399 nM | 442 nM | 
COc1ccc(S(=O)(=O)N2Cc3cc(C#N)ccc3N(Cc3cncn3C)C[C@H]2Cc2ccccc2)cc1 | > 99500 nM | 6.4 nM | 6 nM | 63 nM | 74 nM | > 10000 nM | 70 nM | 101 nM | 724 nM | 43 nM | 99 nM | 21 nM
COc1ccc(S(=O)(=O)N2Cc3cc(-c4ccnc(OC)c4)ccc3N(Cc3cncn3C)C[C@H]2Cc2ccc(OC(=O)NCc3ccccc3)cc2)cc1 | > 99500 nM | 55 nM | 321 nM |  | 338 nM |  |  |  |  |  |  | 
COc1ccc(S(=O)(=O)N2Cc3cc(-c4ccc(C#N)o4)ccc3N(Cc3cncn3C)C[C@H]2Cc2ccc(O)cc2)cc1 | > 99500 nM | < 14 nM | 26.9 nM | 2 nM | 11 nM | > 10000 nM |  | 21 nM | 62.5 nM | 18 nM |  | 
COc1ccc(S(=O)(=O)N2Cc3cc(-c4ccc(C=O)o4)ccc3N(Cc3cncn3C)C[C@H]2Cc2ccc(OC(=O)NCc3ccccc3)cc2)cc1 | > 99500 nM | 1550 nM | > 9700 nM | 443 nM | 311 nM | > 10000 nM |  | 797 nM | 616 nM | 589 nM |  | 
COc1ccc(S(=O)(=O)N2Cc3cc(-c4ccc(C#N)o4)ccc3N(Cc3cncn3C)C[C@H]2Cc2ccc(OS(=O)(=O)C(F)(F)F)cc2)cc1 |  |  |  | 71 nM | 54 nM | > 10000 nM |  | 130 nM |  | 222 nM |  | 
COc1ccc(S(=O)(=O)N2Cc3cc(-c4ccc(C=O)o4)ccc3N(Cc3cncn3C)C[C@H]2Cc2ccc(O)cc2)cc1 | > 99500 nM |  | 7 nM |  | 120 nM |  |  |  | 206 nM |  |  | 
COc1ccc(S(=O)(=O)N2Cc3cc(-c4ccc(C#N)o4)ccc3N(Cc3cncn3C)C[C@H]2Cc2ccc(OCc3ccccc3)cc2)cc1 | > 99500 nM | 577 nM | > 9700 nM |  | 213 nM |  |  |  |  |  |  | 
CCCCCCNC(=O)c1ccc2c(c1)CN(S(=O)(=O)c1ccc(OC)cc1)[C@H](Cc1ccc(O)cc1)CN2Cc1cncn1C | > 99500 nM | 70.5 nM | 20.7 nM |  | 3890 nM |  |  |  |  |  |  | 
COc1ccc(S(=O)(=O)N2Cc3cc(-c4cccc(C#N)c4)ccc3N(Cc3cncn3C)C[C@H]2Cc2ccc(O)cc2)cc1 | > 99500 nM | 22.5 nM | 34.4 nM |  |  |  |  |  |  |  |  | 

SMILES | IC50 [1] | IC50 [2] | IC50 [3] | IC50 [4] | IC50 [5] | IC50 [6] | IC50 [7] | IC50 [8] | IC50 [9] | IC50 [10] | IC50 [11] | IC50 [12]
COc1ccc(S(=O)(=O)N2Cc3cc(C#N)ccc3N(Cc3cncn3C)C[C@H]2Cc2ccc(OC/C=C(\C)CCC=C(C)C)cc2)cc1 | > 99500 nM | 23.5 nM | 1010 nM | 1430 nM | 278 nM | > 10000 nM |  |  | 2070 nM | 1380 nM | 653 nM | 
CCCCCCNC(=O)Oc1ccc(C[C@@H]2CN(Cc3cncn3C)c3ccc(C#N)cc3CN2S(=O)(=O)c2ccc(OC)cc2)cc1 | > 99500 nM | 15.5 nM |  | 355 nM | 77.3 nM |  | 228 nM |  | 243 nM | 233 nM | 289 nM | 
COc1ccc(S(=O)(=O)N2Cc3cc(Nc4ccccc4)ccc3N(Cc3cncn3C)C[C@H]2Cc2ccc(O)cc2)cc1 | > 99500 nM | 246 nM | 454 nM |  |  |  |  |  |  |  |  | 
COc1ccc(S(=O)(=O)N2Cc3cc(-c4ccnc(OC)c4)ccc3N(Cc3cncn3C)C[C@H]2Cc2ccc(-c3cccnc3)cc2)cc1 | > 99500 nM | 121 nM | 79 nM |  | 300 nM |  |  |  |  |  |  | 
COc1ccc(S(=O)(=O)N2Cc3cc(C#N)ccc3N(Cc3cncn3C)C[C@H]2Cc2ccc(OCc3ccccc3)cc2)cc1 | > 99500 nM | 181 nM | 99.3 nM | 1050 nM |  | > 10000 nM | 756 nM | 372 nM | 441 nM | 265 nM | 746 nM | 
COc1ccc(S(=O)(=O)N2Cc3cc(C(=O)NCc4ccccc4)ccc3N(Cc3cncn3C)C[C@H]2Cc2ccc(O)cc2)cc1 | > 99500 nM | 19 nM | 7 nM |  |  |  |  |  |  |  |  | 
COc1ccc(S(=O)(=O)N2Cc3cc(C#N)ccc3N(Cc3cncn3C)C[C@H]2Cc2ccc(O)cc2)cc1 | > 99500 nM | < 4 nM | 5.2 nM | 172 nM | 115 nM |  | 162 nM | 130 nM | 1010 nM | 100 nM | 315 nM | 
COc1ccc(S(=O)(=O)N2Cc3cc(-c4ccnc(OC)c4)ccc3N(Cc3cncn3C)C[C@H]2Cc2ccc(O)cc2)cc1 | > 99500 nM | 5.5 nM | 18.6 nM |  |  |  |  |  |  |  |  | 
COc1ccc(S(=O)(=O)N2Cc3cc(-c4ccncc4)ccc3N(Cc3cncn3C)C[C@H]2Cc2ccc(O)cc2)cc1 | > 99500 nM | < 4 nM | 13.6 nM |  |  |  |  |  |  |  |  | 
COc1ccc(S(=O)(=O)N2Cc3cc(C#N)ccc3N(Cc3cncn3C)C[C@H]2Cc2ccc(OS(=O)(=O)C(F)(F)F)cc2)cc1 | > 99500 nM | 1500 nM |  |  | > 10000 nM | > 10000 nM | 3100 nM | 1960 nM | 18600 nM | 92 nM | 2220 nM | 
CCCCOc1ccc(C[C@@H]2CN(Cc3cncn3C)c3ccc(C#N)cc3CN2S(=O)(=O)c2ccc(OC)cc2)cc1 | > 99500 nM | 156 nM | 10 nM | 264 nM | 307 nM | 8690 nM | 241 nM | 154 nM | 162 nM | 165 nM | 216 nM | 
COc1ccc(S(=O)(=O)N2Cc3cc(-c4cc(F)cc(F)c4)ccc3N(Cc3cncn3C)C[C@H]2Cc2ccc(O)cc2)cc1 | > 99500 nM | 185 nM | 172 nM |  |  |  |  |  |  |  |  | 
COc1ccc(S(=O)(=O)N2Cc3cc(-c4ccc(C#N)o4)ccc3N(Cc3cncn3C)C[C@H]2Cc2ccc(OC(=O)NCc3ccccc3)cc2)cc1 | > 99500 nM | 260 nM | > 9700 nM | 35 nM | 49 nM | > 10000 nM |  | 101 nM | 41.6 nM | 115 nM |  | 
COc1ccc(S(=O)(=O)N2Cc3cc(C#N)ccc3N(Cc3cncn3C)C[C@H]2Cc2ccc(OCC=C(C)C)cc2)cc1 | > 99500 nM | 63 nM | 15 nM | 112 nM | 43 nM | 8030 nM | 90 nM | 59 nM | 39 nM | 116 nM | 74 nM | 
COc1ccc(S(=O)(=O)N2Cc3cc(-c4ccnc(OC)c4)ccc3N(Cc3cncn3C)C[C@H]2Cc2ccc(OCc3ccccc3)cc2)cc1 | > 99500 nM | 5240 nM | 2560 nM |  |  |  |  |  |  |  |  | 
COc1ccc(S(=O)(=O)N2Cc3cc(-c4ccnc(OC)c4)ccc3N(Cc3cncn3C)C[C@H]2Cc2ccc(Nc3ccccc3)cc2)cc1 | > 99500 nM | 5720 nM | 2430 nM |  |  |  |  |  |  |  |  | 
CCN(CC)C(=O)Oc1ccc(C[C@@H]2CN(Cc3cncn3C)c3ccc(C#N)cc3CN2S(=O)(=O)c2ccc(OC)cc2)cc1 | 2020 nM | 123 nM |  | 75 nM | 343 nM | > 10000 nM |  | 745 nM |  | 43 nM | 412 nM | 
